From patent publication US10633419B2, “Immunomodulators” (BRISTOL-MYERS SQUIBB COMPANY, priority 2014, dated 2020)
Starred links: 1 amine or outer side, 2 acyl side, 3 side chain; linkers in the order of their positions; H or OH if unused. Positions of bridges follow the written chain, without caps; N, C: chain ends. Non-standard residues stand in square brackets, D forms with d. Residues, ends and D or L forms follow the SMILES beside them. Groups on a side chain read outwards from the residue. *: point of attachment. X6 = O=C(O)CCCCCCCCCCCCCCCCC(=O)N[C@@H](CCC(=O)NCCCOCCOCCOCCCN*)C(=O)O; Trp(1-CH2COOH) = N[C@@H](Cc1cn(CC(=O)O)c2ccccc12)C(=O)O; X14 = O=C(O)CCCCCCCCCCNC(=O)CCC(=O)NCCCOCCOCCOCCCN*; X9 = O=C(O)CCCCCCCCCCCCCCCCC(=O)N[C@@H](CCN*)C(=O)O; C18 diacid = O=C(O)CCCCCCCCCCCCCCCCC(=O)*; γGlu = O=C(O)[C@H](CCC(=O)[*:2])N[*:1]; d(cisHyp) = O=C(O)[C@H]1C[C@@H](O)CN1; βAsp = O=C(O)[C@H](CC(=O)[*:2])N[*:1]; Hyp = O=C(O)[C@@H]1C[C@@H](O)CN1; Myristoyl = CCCCCCCCCCCCCC(=O)*; dHyp = O=C(O)[C@H]1C[C@H](O)CN1; NMeNle = CCCC[C@H](NC)C(=O)O; Pip = O=C(O)[C@@H]1CCCCN1; NMeA = CN[C@@H](C)C(=O)O; Dab = NCC[C@H](N)C(=O)O; Dap = NC[C@H](N)C(=O)O; PEG2 = NCCOCCOCCC(=O)O; Sar = CNCC(=O)O

The compounds below were run against T1, PD-L1 (Homo sapiens, UniProt Q9NZQ7) (assay: PD-1/PD-L1 Homogenous Time-Resolved Fluorescence (HTRF) binding assay (PD-1-Ig/PD-L1-His)). Settings: inhibition of PD-1-Ig binding to PD-L1-TVMV-His; value given as range class; read-out: HTRF IC50.
T1 construct: hPDL1(19-239)-TVMV-His; made in house; host or cells: HEK293T
In short: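 Inhibitors pre-incubated 15 min with PD-L1-His (10 nM final), then PD-1-Ig (20 nM final) added for 15 min in dPBS/0.1% BSA/0.05% Tween-20. Eu-cryptate anti-Ig (1 nM) and APC anti-His (20 nM) added, 30 min equilibration, 665/620 nm HTRF ratio read.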

T1 sequence (Q9NZQ7 with tags, fused parts or gaps): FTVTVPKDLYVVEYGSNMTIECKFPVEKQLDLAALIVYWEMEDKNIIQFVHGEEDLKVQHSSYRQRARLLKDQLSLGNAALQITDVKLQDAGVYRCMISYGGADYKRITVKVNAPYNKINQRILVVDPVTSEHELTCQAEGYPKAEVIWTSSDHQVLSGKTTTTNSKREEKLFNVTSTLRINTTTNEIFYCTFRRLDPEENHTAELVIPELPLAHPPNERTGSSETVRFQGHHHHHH

| Structure (SMILES) | IC50 [nM] |
| --- | --- |
| CCCC[C@H]1C(=O)N(C)[C@@H](CCCC)C(=O)N[C@@H](CC(C)C)C(=O)N[C@H](C(=O)NCC(=O)N[C@@H](CCNC(=O)CC[C@H](NC(=O)CCCCCCCCCCCCCCCCC(=O)O)C(=O)O)C(=O)O)CSCC(=O)N[C@@H](Cc2ccc(O)cc2)C(=O)N2CCCC[C@H]2C(=O)N[C@@H](CC(N)=O)C(=O)N2CCC[C@H]2C(=O)N[C@@H](CN)C(=O)N[C@@H](CC(C)C)C(=O)N2C[C@H](O)C[C@H]2C(=O)N[C@@H](Cc2c[nH]c3ccccc23)C(=O)N[C@@H](CCN)C(=O)N[C@@H](Cc2cn(CC(=O)O)c3ccccc23)C(=O)N1C [Example 13149] ({CH2CO}-Y[Pip]NP[Dap]L[Hyp]W[Dab][Trp(1-CH2COOH)][NMeNle][NMeNle]LCG[Dab]([γGlu-C18 diacid])-OH; thioether N-14) | 10 to 99 |
| CCCC[C@H]1C(=O)N(C)[C@@H](CCCC)C(=O)N[C@@H](CC(C)C)C(=O)N[C@H](C(=O)NCCCOCCOCCOCCCNC(=O)CCC(=O)NCCCCCCCCCCC(=O)O)CSCC(=O)N[C@@H](Cc2ccc(O)cc2)C(=O)N(C)[C@@H](C)C(=O)N[C@@H](CC(N)=O)C(=O)N2CCC[C@H]2C(=O)N[C@@H](CN)C(=O)N[C@@H](CC(C)C)C(=O)N2C[C@H](O)C[C@@H]2C(=O)N[C@@H](Cc2c[nH]c3ccccc23)C(=O)N[C@@H](CCN)C(=O)N[C@@H](Cc2cn(CC(=O)O)c3ccccc23)C(=O)N1C [Example 11138] ({CH2CO}-Y[NMeA]NP[Dap]L[d(cisHyp)]W[Dab][Trp(1-CH2COOH)][NMeNle][NMeNle]LC-X14; thioether N-14) | 10 to 99 |
| CCCCCCCCCCCCCCCC(=O)N[C@@H](CCn1cc(C[C@H](NC(=O)CNC(=O)[C@@H]2CSCC(=O)N[C@@H](Cc3ccc(O)cc3)C(=O)N(C)[C@@H](C)C(=O)N[C@@H](CC(=O)O)C(=O)N3CCC[C@H]3C(=O)N[C@@H](Cc3c[nH]cn3)C(=O)N[C@@H](CCC(N)=O)C(=O)N3C[C@H](O)C[C@H]3C(=O)N[C@@H](Cc3c[nH]c4ccccc34)C(=O)N[C@@H](CO)C(=O)N[C@@H](Cc3c[nH]c4ccccc34)C(=O)N(C)[C@@H](CCCC)C(=O)N(C)[C@@H](CCCC)C(=O)N[C@@H](CCC(=O)O)C(=O)N2)C(=O)NCC(N)=O)nn1)C(=O)O [Example 14062] | 10 to 99 |
| CCCC[C@H]1C(=O)N(C)[C@@H](CCCC)C(=O)N[C@@H](CC(C)C)C(=O)N[C@H](C(=O)N[C@@H](CC(=O)O)C(=O)N[C@@H](CCC(=O)NCCCOCCOCCOCCCNC(=O)CC[C@H](NC(=O)CCCCCCCCCCCCCCCCC(=O)O)C(=O)O)C(=O)O)CSCC(=O)N[C@@H](Cc2ccc(O)cc2)C(=O)N(C)[C@@H](C)C(=O)N[C@@H](CC(N)=O)C(=O)N2CCC[C@@H]2C(=O)N[C@@H](CN)C(=O)N[C@@H](CC(C)C)C(=O)N2C[C@@H](O)C[C@@H]2C(=O)N[C@@H](Cc2c[nH]c3ccccc23)C(=O)N[C@@H](CCN)C(=O)N[C@@H](Cc2cn(CC(=O)O)c3ccccc23)C(=O)N1C [Example 11228] ({CH2CO}-Y[NMeA]N[dP][Dap]L[dHyp]W[Dab][Trp(1-CH2COOH)][NMeNle][NMeNle]LCDE(X6)-OH; thioether N-14) | 10 to 99 |
| CCCC[C@H]1C(=O)N(C)[C@@H](CCCC)C(=O)N[C@@H](CCC(=O)O)C(=O)N[C@H](C(=O)NCCCOCCOCCOCCCNC(=O)CCC(=O)NCCCCCCCCCCC(=O)O)CSCC(=O)N[C@@H](Cc2ccc(O)cc2)C(=O)N(C)[C@@H](C)C(=O)N[C@@H](CC(=O)O)C(=O)N2CCC[C@H]2C(=O)N[C@@H](CN)C(=O)N[C@@H](CC(C)C)C(=O)N2C[C@H](O)C[C@@H]2C(=O)N[C@@H](Cc2c[nH]c3ccccc23)C(=O)N[C@@H](CCN)C(=O)N[C@@H](Cc2cn(CC(=O)O)c3ccccc23)C(=O)N1C [Example 11145] ({CH2CO}-Y[NMeA]DP[Dap]L[d(cisHyp)]W[Dab][Trp(1-CH2COOH)][NMeNle][NMeNle]EC-X14; thioether N-14) | 0.3 to 9.9 |
| CCCC[C@H]1C(=O)N(C)[C@@H](CCCC)C(=O)N[C@@H](CC(C)C)C(=O)N[C@H](C(=O)NCCCOCCOCCOCCCNC(=O)CCC(=O)NCCCCCCCCCCC(=O)O)CSCC(=O)N[C@@H](Cc2ccc(O)cc2)C(=O)N(C)[C@@H](C)C(=O)N[C@@H](CC(N)=O)C(=O)N2CCC[C@H]2C(=O)N[C@@H](CO)C(=O)N[C@@H](CCC(N)=O)C(=O)N2C[C@H](O)C[C@H]2C(=O)N[C@@H](Cc2c[nH]c3ccccc23)C(=O)N[C@@H](CO)C(=O)N[C@@H](Cc2cn(CC(=O)O)c3ccccc23)C(=O)N1C [Example 11083] ({CH2CO}-Y[NMeA]NPSQ[Hyp]WS[Trp(1-CH2COOH)][NMeNle][NMeNle]LC-X14; thioether N-14) | 10 to 99 |
| CCCC[C@H]1C(=O)N(C)[C@@H](CCCC)C(=O)N[C@@H](CCC(=O)O)C(=O)N[C@H](C(=O)NCC(=O)N[C@@H](CC(=O)NCCCOCCOCCOCCCNC(=O)CC[C@H](NC(=O)CCCCCCCCCCCCCCCCC(=O)O)C(=O)O)C(=O)O)CSCC(=O)N[C@@H](Cc2ccc(O)cc2)C(=O)N(C)[C@@H](C)C(=O)N[C@@H](CC(=O)O)C(=O)N(C)CC(=O)N[C@@H](Cc2c[nH]cn2)C(=O)N[C@@H](CCCCN)C(=O)N2C[C@H](O)C[C@H]2C(=O)N[C@@H](Cc2c[nH]c3ccccc23)C(=O)N[C@@H](CCN)C(=O)N[C@@H](Cc2cn(CC(=O)O)c3ccccc23)C(=O)N1C [Example 11174] ({CH2CO}-Y[NMeA]D[Sar]HK[Hyp]W[Dab][Trp(1-CH2COOH)][NMeNle][NMeNle]ECGD(X6)-OH; thioether N-14) | 10 to 99 |
| CCCC[C@H]1C(=O)N(C)[C@@H](CCCC)C(=O)N[C@@H](CC(C)C)C(=O)C[C@H](C(=O)NCC(=O)N[C@@H](CCC(=O)O)C(=O)NCCCOCCOCCOCCCNC(=O)CC[C@H](NC(=O)CCCCCCCCCCCCCCC(=O)O)C(=O)O)CSCC(=O)N[C@@H](Cc2ccc(O)cc2)C(=O)N(C)[C@@H](C)C(=O)N[C@@H](CC(N)=O)C(=O)N2CCC[C@H]2C(=O)N[C@@H](CN)C(=O)N[C@@H](CC(C)C)C(=O)N2C[C@H](O)C[C@H]2C(=O)N[C@@H](Cc2c[nH]c3ccccc23)C(=O)N[C@@H](CCN)C(=O)N[C@@H](Cc2cn(CC(=O)O)c3ccccc23)C(=O)N1C [Example 11184] | 10 to 99 |
| CCCCCCCCCCCCCC(=O)NCCCC[C@H](NC(=O)[C@H](CC(=O)O)NC(=O)[C@H](CC(=O)O)NC(=O)CNC(=O)[C@@H]1CSCC(=O)N[C@@H](Cc2ccc(O)cc2)C(=O)N(C)[C@@H](C)C(=O)N[C@@H](CC(=O)O)C(=O)N2CCC[C@H]2C(=O)N[C@@H](Cc2cnc[nH]2)C(=O)N[C@@H](CC(C)C)C(=O)N2C[C@H](O)C[C@H]2C(=O)N[C@@H](Cc2c[nH]c3ccccc23)C(=O)N[C@@H](CO)C(=O)N[C@@H](Cc2c[nH]c3ccccc23)C(=O)N(C)[C@@H](CCCC)C(=O)N(C)[C@@H](CCCC)C(=O)N[C@@H](CCCNC(=N)N)C(=O)N1)C(N)=O [Example 11014] ({CH2CO}-Y[NMeA]DPHL[Hyp]WSW[NMeNle][NMeNle]RCGDDK(Myristoyl)-NH2; thioether N-14) | 100 to 1600 |
| CCCC[C@H]1C(=O)N(C)[C@@H](CCCC)C(=O)N[C@@H](CC(C)C)C(=O)N[C@H](C(=O)NCC(=O)N[C@@H](CC(=O)NCCOCCOCCC(=O)NCC[C@H](NC(=O)CCCCCCCCCCCCCCCCC(=O)O)C(=O)O)C(=O)O)CSCC(=O)N[C@@H](Cc2ccc(O)cc2)C(=O)N2CCCC[C@H]2C(=O)N[C@@H](CC(N)=O)C(=O)N2CCC[C@H]2C(=O)N[C@@H](CN)C(=O)N[C@@H](CC(C)C)C(=O)N2C[C@H](O)C[C@H]2C(=O)N[C@@H](Cc2c[nH]c3ccccc23)C(=O)N[C@@H](CCN)C(=O)N[C@@H](Cc2cn(CC(=O)O)c3ccccc23)C(=O)N1C [Example 13163] ({CH2CO}-Y[Pip]NP[Dap]L[Hyp]W[Dab][Trp(1-CH2COOH)][NMeNle][NMeNle]LCG[βAsp][PEG2]-X9; thioether N-14) | 0.3 to 9.9 |
